Test results published in PubChem BioAssay (NCI).
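Values below derive from 48-hour exposures of cells grown in 96-well plates, with endpoints linearly interpolated between the two concentrations bracketing the appropriate inhibition level. GI50: concentration for 50% inhibition of growth. TGI: total growth inhibition.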

How the values were obtained:
Test in all cases: growth of human tumour cells (NCI), 48 h
DU-145 prostate = system: DU-145 prostate
EKVX NSCLC = system: EKVX NSCLC
MOLT-4 leukemia = system: MOLT-4 leukemia
SF-268 CNS = system: SF-268 CNS
SF-539 CNS = system: SF-539 CNS
SN12C renal = system: SN12C renal
SNB-75 CNS = system: SNB-75 CNS
UO-31 renal = system: UO-31 renal

SMILES	GI50 (DU-145 prostate)	TGI (DU-145 prostate)	GI50 (EKVX NSCLC)	TGI (EKVX NSCLC)	GI50 (MOLT-4 leukemia)	TGI (MOLT-4 leukemia)	GI50 (SF-268 CNS)	TGI (SF-268 CNS)	GI50 (SF-539 CNS)	TGI (SF-539 CNS)	GI50 (SN12C renal)	TGI (SN12C renal)	GI50 (SNB-75 CNS)	TGI (SNB-75 CNS)	GI50 (UO-31 renal)	TGI (UO-31 renal)
COc1ccc(/C=C/c2c(C(=O)/C=C/c3ccc(C(F)(F)F)cc3)c(C)nc3ccccc23)cc1	1.76 µM	3.71 µM	1.72 µM	4.49 µM	1.04 µM	> 100 µM	1.8 µM	3.67 µM	1.85 µM	3.34 µM	2.02 µM	5.66 µM	1.43 µM	2.85 µM	1.11 µM	2.33 µM
O=C(Nc1ccccc1I(=O)=O)C1CCCCC1	> 100 µM	> 100 µM	> 100 µM	> 100 µM	98.5 µM	> 100 µM	> 100 µM	> 100 µM	> 100 µM	> 100 µM	> 100 µM	> 100 µM	> 100 µM	> 100 µM	> 100 µM	> 100 µM
O=C1/C(=C/c2ccc(F)cc2)CN(C(=O)CCN2CCC(=NO)CC2)C/C1=C\c1ccc(F)cc1	2.26 µM	5.17 µM	2.19 µM	5.9 µM	0.699 µM	7.97 µM	2.02 µM	5.46 µM	1.95 µM	4.07 µM	1.2 µM	3.64 µM	2.29 µM	7.5 µM	1.37 µM	2.84 µM
O=C(O)/C(Cc1cn[nH]n1)=N\O	–	> 100 µM	–	> 100 µM	–	> 100 µM	–	> 100 µM	–	> 100 µM	–	> 100 µM	–	> 100 µM	–	> 100 µM
CCCCC#Cc1c(I)n(C)c(=O)[nH]c1=O	4.42 µM	15.4 µM	15.7 µM	29.1 µM	2.73 µM	13.9 µM	2.68 µM	7.64 µM	15.8 µM	29.2 µM	13.2 µM	26.5 µM	12.3 µM	24.7 µM	2.59 µM	10.2 µM
S=C1Cc2c(-c3ccc(Br)cc3)cc(-c3ccccc3)nc2-c2ccccc2N1	–	10.3 µM	–	4.67 µM	–	72 µM	–	6.19 µM	–	12.2 µM	–	2.97 µM	–	3.35 µM	–	4.77 µM
CN=C1C=CC(=C(c2ccc(N(C)C)cc2)c2ccc(N(C)C)cc2)C=C1	0.274 µM	1.71 µM	0.237 µM	2.62 µM	0.369 µM	6.98 µM	0.25 µM	1.54 µM	0.319 µM	1.84 µM	0.163 µM	3.04 µM	0.295 µM	1.04 µM	0.317 µM	1.21 µM
C#C[C@@]1(O)[C@@H](CO)O[C@@H](n2cc(I)c3c(N)ncnc32)[C@@H]1O	0.127 µM	> 100 µM	0.408 µM	5.37 µM	0.0489 µM	0.831 µM	1.1 µM	49.9 µM	0.378 µM	2.55 µM	0.0976 µM	> 100 µM	0.457 µM	1.99 µM	0.0901 µM	3.19 µM
CNCCCNc1nc2ccccc2c2c(=O)c3cc(OC)ccc3sc12	1.78 µM	3.23 µM	1.72 µM	3.7 µM	2.06 µM	4.41 µM	1.71 µM	3.42 µM	1.7 µM	3.1 µM	1.67 µM	3.28 µM	1.69 µM	3.39 µM	1.42 µM	2.75 µM
C#Cc1cccc(Nc2nc(Cl)nc3cc(NC(=O)CCl)ccc23)c1	0.806 µM	2.8 µM	2.12 µM	6.27 µM	0.564 µM	1.64 µM	0.557 µM	1.48 µM	2.36 µM	5.59 µM	0.637 µM	1.8 µM	1.13 µM	5.13 µM	0.823 µM	3.15 µM
CC(C)N(Cc1ccc(CN(C(=O)CCl)C(C)C)cc1)C(=O)CCl	3.23 µM	12.4 µM	2.36 µM	5.63 µM	2.33 µM	8.13 µM	1.66 µM	3.49 µM	1.67 µM	3.25 µM	1.49 µM	3.71 µM	1.29 µM	2.59 µM	1.76 µM	3.21 µM
COc1ccccc1S(=O)(=O)Nc1ccc2c3c(cc(CCC(=O)NCCCCNc4cccc5c4C(=O)N(C4CCC(=O)NC4=O)C5=O)cc13)C(=O)N2C (stereo unspecified)	5.68 µM	> 100 µM	18.1 µM	> 100 µM	0.0352 µM	–	0.317 µM	> 100 µM	0.978 µM	> 100 µM	0.462 µM	> 100 µM	0.0718 µM	0.828 µM	2.4 µM	> 100 µM
CC(=O)N1CCN(CCNC(=O)n2cc(-c3ccncc3)c(-c3cc(O)cc(Cl)c3)n2)CC1	24.3 µM	> 100 µM	24.6 µM	> 100 µM	10.4 µM	49.2 µM	14.6 µM	35.2 µM	5.73 µM	21.1 µM	13.7 µM	46.2 µM	13.5 µM	41.4 µM	8.95 µM	22.5 µM
O=C(NCC(F)(F)F)Nc1cccc(-c2cnc3cc(-c4ccc(F)cc4)ccn23)c1	3.91 µM	> 100 µM	5.17 µM	> 100 µM	0.681 µM	> 29 µM	2.8 µM	> 100 µM	0.522 µM	3.5 µM	1.54 µM	> 67.4 µM	0.24 µM	2.09 µM	0.575 µM	5.53 µM
C#CC1=CC(=O)C(OC)=CC1=O	–	37.4 µM	–	68.1 µM	–	> 100 µM	–	> 100 µM	–	> 100 µM	–	31.7 µM	–	18.5 µM	–	14.3 µM
O=C1CSC(c2ccccc2Cl)N1c1nnc(Cn2cnnc2)o1 (stereo unspecified)	19.7 µM	44.3 µM	22.3 µM	> 100 µM	7.27 µM	26.1 µM	13.9 µM	93.7 µM	13.6 µM	35.2 µM	23.1 µM	76.3 µM	3.19 µM	41.8 µM	30.8 µM	> 100 µM
O=[N+]([O-])c1ccc(Cl)c(CNc2ncnc3c2ncn3C2CCCCO2)c1 (stereo unspecified)	–	> 100 µM	–	> 100 µM	–	88.2 µM	–	> 100 µM	–	66.1 µM	–	> 100 µM	–	> 100 µM	–	> 100 µM
CS(=O)(=O)Nc1cccc(-c2ccc3ncnc(Nc4ccc(F)c(Cl)c4)c3c2)c1	1.29 µM	13.8 µM	0.129 µM	3.72 µM	1.8 µM	12.4 µM	1.97 µM	9.14 µM	1.83 µM	4.2 µM	1.93 µM	6.59 µM	4.32 µM	> 30.2 µM	0.706 µM	3.1 µM
COc1cc(OC)cc(C2C3=C(COC3=O)Nc3cc(OC)ccc32)c1 (stereo unspecified)	< 0.01 µM	0.0486 µM	< 0.01 µM	> 100 µM	< 0.01 µM	–	< 0.0106 µM	> 61.8 µM	< 0.01 µM	15.7 µM	0.0146 µM	> 77.6 µM	< 0.01 µM	24.1 µM	0.0387 µM	> 67.7 µM
COC(=O)Nc1nc2ccccc2[nH]1	–	> 87 µM	–	> 100 µM	–	> 100 µM	–	> 100 µM	–	50.5 µM	–	> 100 µM	–	> 73.8 µM	–	> 100 µM
COc1cccc2cc(N(C)c3nc(C)nc4c3CCC4)ccc12	< 0.01 µM	12 µM	< 0.01 µM	30.7 µM	< 0.01 µM	16.1 µM	< 0.01 µM	15.6 µM	< 0.01 µM	< 0.01 µM	< 0.01 µM	22.4 µM	–	24.2 µM	< 0.0104 µM	18.1 µM
O=C(CN(/C=C/C(=O)C(F)(F)F)c1ccc(Cl)cc1)c1ccc(Cl)c(Cl)c1	16.7 µM	33.4 µM	14.5 µM	29.3 µM	2.57 µM	10.5 µM	4.13 µM	16.4 µM	20.1 µM	38 µM	2.38 µM	5.43 µM	13.6 µM	31.6 µM	5.65 µM	18.8 µM
N#CC1=C(N)Oc2c(ccc3ccccc23)C1c1cc(=O)oc2ccc(Cl)cc12 (stereo unspecified)	4.11 µM	> 100 µM	3.79 µM	> 100 µM	0.887 µM	87.8 µM	2.02 µM	> 100 µM	0.486 µM	5.57 µM	2.59 µM	45.4 µM	2.16 µM	> 100 µM	1.82 µM	> 100 µM
CC(=O)OC12C=C(C)C(C(C)C1)C1C(=O)N(CCN3CCCCC3)C(=O)C12 (stereo unspecified)	> 50 µM	> 50 µM	> 50 µM	> 50 µM	> 50 µM	> 50 µM	> 50 µM	> 50 µM	> 50 µM	> 50 µM	> 50 µM	> 50 µM	> 50 µM	> 50 µM	> 50 µM	> 50 µM
